Data from ChEMBL document CHEMBL1201862, “PubChem BioAssay data set” (2004).
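Exposure lasted 48 hours, with cells grown in 96-well plates and compounds tested at five concentrations. At the GI50, growth is halved.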 Active and inactive are the calls of the source. No stated cut-off is given here; in the data, active = GI50 up to about 1.1 µM and inactive = higher.

How the values were obtained:
Experiment in all cases: inhibition of tumour cell growth, NCI panel, 48 h
SK-MEL-28 = tested on: SK-MEL-28
MCF7 = tested on: MCF7
SN12C = tested on: SN12C
A498 = tested on: A498
MDA-N = tested on: MDA-N
SK-OV-3 = tested on: SK-OV-3
RXF 393 = tested on: RXF 393
LOX IMVI = tested on: LOX IMVI
T47D = tested on: T47D
SW-620 = tested on: SW-620
COLO 205 = tested on: COLO 205
ACHN = tested on: ACHN
MDA-MB-231 = tested on: MDA-MB-231
UACC-62 = tested on: UACC-62
HCT-15 = tested on: HCT-15
Malme-3M = tested on: Malme-3M
HL-60 = tested on: HL-60
HCT-116 = tested on: HCT-116
SR = tested on: SR

SMILES | GI50 (SK-MEL-28) | GI50 (MCF7) | GI50 (SN12C) | GI50 (A498) | GI50 (MDA-N) | GI50 (SK-OV-3) | GI50 (RXF 393) | GI50 (LOX IMVI) | GI50 (T47D) | GI50 (SW-620) | GI50 (COLO 205) | GI50 (ACHN) | GI50 (MDA-MB-231) | GI50 (UACC-62) | GI50 (HCT-15) | GI50 (Malme-3M) | GI50 (HL-60) | GI50 (HCT-116) | GI50 (SR)
N#Cc1ccccc1-c1nc2c3c(c(N)ccc3n1)C(=O)c1ccccc1-2 | 24.8 µM (inactive) | 17.6 µM (inactive) | 60 µM (inactive) | 43.6 µM (inactive) | > 100 µM (inactive) | 24.4 µM (inactive) | 18 µM (inactive) | 27.9 µM (inactive) | 6.7 µM (inactive) | 31 µM (inactive) | 26.4 µM (inactive) | 22.2 µM (inactive) | 10.3 µM (inactive) | 64.6 µM (inactive) | 31.8 µM | > 100 µM (inactive) | 20 µM (inactive) | 29.7 µM (inactive) | 
Oc1cccc(Nc2cc(O)nc(O)n2)c1 | > 100 µM (inactive) |  | > 100 µM (inactive) | > 100 µM (inactive) | > 100 µM (inactive) | 67.9 µM (inactive) | > 100 µM (inactive) | > 100 µM (inactive) | > 100 µM (inactive) | > 100 µM (inactive) | > 100 µM (inactive) | > 100 µM (inactive) | > 100 µM (inactive) | > 100 µM (inactive) | > 100 µM | > 100 µM (inactive) | > 100 µM (inactive) | > 100 µM (inactive) | > 100 µM (inactive)
COC[C@@H](C[C@H]1O[C@@](O)([C@H](O)[C@@H]2C[C@H](OC)[C@@H](O)CC/C=C(C)/C=C/[C@@H](O[C@@H]3O[C@@H](C)[C@H](OC)[C@@H](O)[C@@H]3O)[C@H](C)/C=C(C)/C=C(C)/C=C(\C)C(=O)O2)[C@H](C)[C@@H](O)[C@H]1C)O[C@H]1C[C@](C)(O)[C@@H](O[C@H]2C[C@@H](OC)[C@H](O)[C@@H](C)O2)C(C)O1 (some centres not stated) | > 67.8 µM (inactive) | 0.0785 µM (active) | > 100 µM (inactive) |  | > 100 µM (inactive) | > 100 µM (inactive) | > 100 µM (inactive) | 46.5 µM (inactive) | 0.188 µM (active) | > 85.7 µM (inactive) | 0.221 µM (active) | 96.4 µM (inactive) | > 100 µM (inactive) | > 100 µM (inactive) | > 100 µM |  | 0.869 µM (active) | > 100 µM (inactive) | 
O=C1Oc2ccccc2C(=O)/C1=C/N1C(=O)N/C(=C\c2cccc(O)c2)C1=O | > 100 µM (inactive) | > 100 µM (inactive) | 69.5 µM (inactive) |  | 63.8 µM (inactive) | > 100 µM (inactive) |  | > 100 µM (inactive) | 54.2 µM (inactive) | 83.4 µM (inactive) | > 100 µM (inactive) | 20.7 µM (inactive) | 62.4 µM (inactive) |  | 61.9 µM |  | 6.87 µM (inactive) | 76 µM (inactive) | 
Cc1c(NC(=S)Nc2ccc([N+](=O)[O-])cc2)c(=O)n(-c2ccccc2)n1C | > 100 µM (inactive) | > 100 µM (inactive) |  | > 100 µM (inactive) | > 100 µM (inactive) | > 100 µM (inactive) | > 100 µM (inactive) | > 100 µM (inactive) |  | > 100 µM (inactive) | > 100 µM (inactive) | > 100 µM (inactive) | > 100 µM (inactive) | > 100 µM (inactive) | > 100 µM | > 100 µM (inactive) | > 100 µM (inactive) | > 100 µM (inactive) | > 100 µM (inactive)
Cc1cc2c(cc1Cl)SC(NN(C)C)=NS2(=O)=O | > 10 µM (inactive) | > 10 µM (inactive) | > 10 µM (inactive) | > 10 µM (inactive) | > 10 µM (inactive) | > 10 µM (inactive) | > 10 µM (inactive) | > 10 µM (inactive) | > 10 µM (inactive) | > 10 µM (inactive) | > 10 µM (inactive) | > 10 µM (inactive) | > 10 µM (inactive) | > 10 µM (inactive) | > 10 µM | > 10 µM (inactive) | > 10 µM (inactive) | > 10 µM (inactive) | 
C[N+](C)(C)/C=N\c1cccc2nsnc12 | > 100 µM (inactive) | > 100 µM (inactive) | > 100 µM (inactive) | > 100 µM (inactive) | > 100 µM (inactive) | > 100 µM (inactive) | > 100 µM (inactive) | > 100 µM (inactive) | > 100 µM (inactive) |  | > 100 µM (inactive) | > 100 µM (inactive) | > 100 µM (inactive) | > 100 µM (inactive) | > 100 µM | > 100 µM (inactive) | > 100 µM (inactive) | > 100 µM (inactive) | 
CN(C)c1ccc(/C=N/NC(=S)Nc2ccccc2)cc1 | > 100 µM (inactive) | > 100 µM (inactive) | > 100 µM (inactive) | > 100 µM (inactive) |  | > 100 µM (inactive) | > 100 µM (inactive) | > 100 µM (inactive) | > 100 µM (inactive) | > 100 µM (inactive) | > 100 µM (inactive) | > 100 µM (inactive) | > 100 µM (inactive) | > 100 µM (inactive) | > 100 µM | > 100 µM (inactive) |  | > 100 µM (inactive) | > 100 µM (inactive)
CCN(CC)CCNc1ccc(/N=N/c2ccc(S(N)(=O)=O)cc2)c2ccccc12 | 11.5 µM (inactive) | 6.73 µM (inactive) | 8.89 µM (inactive) | 14.1 µM (inactive) |  |  | 3.61 µM (inactive) | 2.65 µM (inactive) | 2.55 µM (inactive) | 3.3 µM (inactive) | 4.24 µM (inactive) | 13 µM (inactive) | 4.33 µM (inactive) | 8.61 µM (inactive) | 4.52 µM | 15.7 µM (inactive) | 14.5 µM (inactive) | 3.72 µM (inactive) | 2.1 µM (inactive)
NCC(O)CSCc1ccc(Cl)cc1 (configuration not stated) | > 100 µM (inactive) | > 100 µM (inactive) | > 100 µM (inactive) | > 100 µM (inactive) | > 100 µM (inactive) | > 100 µM (inactive) | > 100 µM (inactive) | > 100 µM (inactive) | > 100 µM (inactive) | > 100 µM (inactive) | > 100 µM (inactive) | > 100 µM (inactive) | > 100 µM (inactive) | > 100 µM (inactive) | > 100 µM | > 100 µM (inactive) | > 100 µM (inactive) | > 100 µM (inactive) | 
CCOC(=O)C12C3CCC1C2C(=O)C3 (configuration not stated) | > 100 µM (inactive) | > 100 µM (inactive) | > 100 µM (inactive) |  | > 100 µM (inactive) | > 100 µM (inactive) | > 100 µM (inactive) | > 100 µM (inactive) |  | > 100 µM (inactive) | > 100 µM (inactive) | > 100 µM (inactive) | > 100 µM (inactive) | > 100 µM (inactive) | > 100 µM | > 100 µM (inactive) |  | > 100 µM (inactive) | > 100 µM (inactive)
COc1ccc(OC)c2cc(Cc3ccc(N(C)C)cc3)c(=O)c(Cc3ccc(N(C)C)cc3)cc12 | > 100 µM (inactive) | > 100 µM (inactive) | > 100 µM (inactive) | 26.4 µM (inactive) | > 100 µM (inactive) | > 100 µM (inactive) | > 100 µM (inactive) |  | 76.9 µM (inactive) | > 100 µM (inactive) | > 100 µM (inactive) | > 100 µM (inactive) | 74.5 µM (inactive) | 59.4 µM (inactive) | > 100 µM | > 100 µM (inactive) |  | > 100 µM (inactive) | 
CCOC(=O)Cc1csc(N/C=C2/C(=O)Oc3ccccc3C2=O)n1 | 25.1 µM (inactive) | 40.8 µM (inactive) |  |  |  | 35.4 µM (inactive) | 14.7 µM (inactive) | 25.6 µM (inactive) |  | 21.6 µM (inactive) | 44.7 µM (inactive) | 12 µM (inactive) |  | 13.5 µM (inactive) | 24.2 µM | 1.79 µM (inactive) | 0.083 µM (active) | 27.6 µM (inactive) | 14.3 µM (inactive)
CC1=C([S+]([O-])c2ccc(C)cc2)CCC2(CCCCO2)O1 (configuration not stated) | > 100 µM (inactive) | > 100 µM (inactive) | > 100 µM (inactive) | > 100 µM (inactive) |  |  | > 100 µM (inactive) | > 100 µM (inactive) | > 100 µM (inactive) | > 100 µM (inactive) | > 100 µM (inactive) | > 100 µM (inactive) | > 100 µM (inactive) | > 100 µM (inactive) | > 100 µM | > 100 µM (inactive) | 23.3 µM (inactive) | > 100 µM (inactive) | 
N#CCC(=O)c1cc(OCc2cc(OCc3ccc(Br)cc3)cc(OCc3ccc(Br)cc3)c2)cc(OCc2cc(OCc3ccc(Br)cc3)cc(OCc3ccc(Br)cc3)c2)c1 | > 100 µM (inactive) | > 100 µM (inactive) | > 100 µM (inactive) | > 100 µM (inactive) | > 100 µM (inactive) | > 100 µM (inactive) |  |  | > 100 µM (inactive) |  | > 100 µM (inactive) | > 100 µM (inactive) | > 100 µM (inactive) | > 100 µM (inactive) | > 100 µM | > 100 µM (inactive) |  | > 100 µM (inactive) | 
CC(C)(C)c1ccc2c(c1)C#Cc1cc(C(C)(C)C)ccc1OCCCO2 | > 100 µM (inactive) | > 100 µM (inactive) | > 100 µM (inactive) | > 100 µM (inactive) | > 100 µM (inactive) |  | > 100 µM (inactive) | > 100 µM (inactive) | > 100 µM (inactive) | > 100 µM (inactive) | > 100 µM (inactive) | > 100 µM (inactive) | > 100 µM (inactive) | > 100 µM (inactive) | > 100 µM | > 100 µM (inactive) | > 100 µM (inactive) | > 100 µM (inactive) | 
N#CC(/N=N/c1ccccc1C(=O)O)C(N)=O (configuration not stated) | > 100 µM (inactive) |  | > 100 µM (inactive) |  | > 100 µM (inactive) |  | > 100 µM (inactive) |  | > 100 µM (inactive) | > 100 µM (inactive) |  | 68.7 µM (inactive) | > 100 µM (inactive) | > 100 µM (inactive) | 68.9 µM | 91.2 µM (inactive) | > 100 µM (inactive) | > 100 µM (inactive) | > 100 µM (inactive)
